Common to all, as to assay type: biochemical
For one test, the target named is T1, GST-hPPARγ1LBD (Homo sapiens, UniProt P37231).
T1 construct: amino acids 176-478 of PPARγ1; made in house; host or cells: E. coli (DH5α)
Description: FRET assay, biotin-hCBP1-453 with SA-XL665, GST-hPPARγ1LBD and Eu3+K-labeled anti-GST antibody (experiment 4). Particulars: HEPES + 0.05% CHAPS, 1 μM AD5075, ratio 665 nm/620 nm. How it is done: To further improve the signal to noise ratio, a series of experiments were conducted. Experiment 4 of Table 1 exemplifies 5 results obtained from those efforts. cDNA encoding a longer fragment of hCBP was cloned and expressed to get hCBP1-453. hCBP1-453 was biotinylated. Biotin-labeled hCBP1-453 (25 nM), SA-XL665 (100 nM), GST-hPPARγ1LBD (1 nM), and Eu3+K-labeled anti-GST antibody (2 nM) were mixed together in the presence or absence of 1 μM AD5075. […] A three- to four-fold signal-noise ratio was obtained.

The target of a further test is T2, PPARγ (Homo sapiens, UniProt P37231).
T2 construct: amino acids 176-478 of PPARγ1; GST (N); made in house; host or cells: E. coli (DH5α)
In words: Titration of known PPARγ agonists in the CBP/PPARγ FRET assay (FIG. 5). Particulars: derived from FIG. 5; agonist-induced CBP-PPARγ FRET.

Test [1] addresses T3, PPARγ1LBD (Homo sapiens, UniProt P37231). Description: FRET assay, Eu3+K-labeled hCBP1-113 with biotin-hPPARγ1LBD and SA-XL665 (experiments 1 and 2). Also on record: amino acids 176-478 of PPARγ1; GST (N, cleaved yes); made in house; host or cells: E. coli (DH5α). The conditions noted are these: 1 μM AD5075, ratio 665 nm/620 nm. An excerpt: Experiments were first conducted using hCBP1-113 and hPPARγ1LBD. Purified hPPARγ1LBD was biotinylated with Sulfo-NHS-LC-Biotin (PIERCE) to a biotin:hPPARγ1LBD ratio of 3:1 according to the procedure provided by PIERCE. Purified hCBP1-113 was directly labeled with europium cryptate (Eu3+K) by the method illustrated in FIG. 1.
Thus, this experimental format made use of the fluorescent reagent pair europium cryptate (Eu3+K), which acted as donor, and XL665, which acted as acceptor. hCBP1-113 was directly labeled with europium cryptate (Eu3+K); hPPARγ12LBD was indirectly labeled with XL665 by means of a biotin-streptavidin link. The emission maximum of europium cryptate (Eu3+K) overlaps with the absorption maximum of XL665. Therefore, when europium cryptate (Eu3+K) and XL665 are in close proximity, and the sample is illuminated with light at 337 nm (the absorption maximum of europium cryptate (Eu3+K)), FRET can occur between europium cryptate (Eu3+K) and XL665. This FRET manifests itself as increased emission at 665 nm by XL665. […] When agonist is bound to hPPARγ1LBD, a specific interaction occurs between hPPARγ1LBD and hCBP1-113, thus bringing europium cryptate (Eu3+K) and XL665 into close enough proximity for FRET to occur. […]

The target in test [2] is T3, PPARγ1LBD. Description: FRET assay, GST-hCBP1-113 with Eu3+K-labeled anti-GST antibody, biotin-hPPARγ1LBD and SA-XL665 (experiment 3). Also on record: amino acids 176-478 of PPARγ1; GST (N, cleaved yes); made in house; host or cells: E. coli (DH5α). Particulars: HEPES + 0.05% NP40, 1 μM AD5075, ratio 665 nm/620 nm. The procedure:
In order to get an even better signal-noise ratio, the above-described format was modified slightly for experiment 3. In experiment 3, SA-XL665 (500 nM), biotin-labeled hPPARγ1LBD (100 nM), GST-hCBP1-113, and Eu3+K labeled anti-GST antibody (2.5 μl) were incubated in the presence or absence of AD5075 (1 μM) in HEPES buffer containing 0.05% NP40. A two-fold signal- noise ratio was obtained.
The anti-GST antibody was a goat antibody to GST from Pharmacia (catalogue number 27-4577-01) that was labeled with Eu3+K according to the procedure summarized below. [drawing 2]

Molecules are shown by their SMILES.

T3 sequence (P37231 204-505): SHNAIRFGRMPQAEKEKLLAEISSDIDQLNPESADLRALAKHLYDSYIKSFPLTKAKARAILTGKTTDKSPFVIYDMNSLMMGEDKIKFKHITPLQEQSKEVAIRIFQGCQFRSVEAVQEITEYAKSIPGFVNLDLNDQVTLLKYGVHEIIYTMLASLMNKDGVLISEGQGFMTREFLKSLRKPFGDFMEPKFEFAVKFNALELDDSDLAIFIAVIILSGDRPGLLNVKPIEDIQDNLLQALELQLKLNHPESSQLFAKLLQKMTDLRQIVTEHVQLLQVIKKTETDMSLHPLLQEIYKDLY
T3 sequence (Q92793 1-113 partner): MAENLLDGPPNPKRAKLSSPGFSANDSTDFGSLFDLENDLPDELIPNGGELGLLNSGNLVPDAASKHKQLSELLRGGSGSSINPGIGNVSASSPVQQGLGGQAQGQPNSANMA
T2 sequence (P37231 204-505 limits assumed): as the sequence (P37231 204-505) above
T2 sequence (Q92793 1-453 partner limits assumed): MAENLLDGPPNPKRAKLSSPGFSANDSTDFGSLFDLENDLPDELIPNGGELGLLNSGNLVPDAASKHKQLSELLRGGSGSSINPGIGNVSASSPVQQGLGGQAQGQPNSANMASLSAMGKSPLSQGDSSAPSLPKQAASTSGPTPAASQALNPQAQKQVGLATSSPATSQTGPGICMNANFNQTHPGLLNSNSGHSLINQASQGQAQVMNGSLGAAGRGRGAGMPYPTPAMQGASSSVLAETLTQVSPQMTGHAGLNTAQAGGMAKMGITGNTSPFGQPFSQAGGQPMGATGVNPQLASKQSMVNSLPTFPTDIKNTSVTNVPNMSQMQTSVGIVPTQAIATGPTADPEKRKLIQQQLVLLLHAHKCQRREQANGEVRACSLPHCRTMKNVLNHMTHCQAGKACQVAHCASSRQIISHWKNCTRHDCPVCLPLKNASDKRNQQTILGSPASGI
T1 sequence (P37231 204-505): as the sequence (P37231 204-505) above
T1 sequence (Q92793 1-453 partner): as the sequence (Q92793 1-453 partner limits assumed) above

As for `Cc1oc(-c2ccccc2)nc1C(O)COc1ccc(CC2SC(=O)NC2=O)cc1` (centres unmarked) [AD5075], the “Emission ratio with AD5075” value on GST-hPPARγ1LBD amounted to 1883; at PPARγ1LBD [1] (Experiment 1, PBS buffer), 1134; at PPARγ1LBD [1] (Experiment 2, HEPES + 0.05% NP40), 967; at PPARγ1LBD [2] it was 1078. The molecule further registered an EC50 on PPARγ of 8 nM.

The record behind these values is patent publication US6689574B1, “Assays for nuclear receptor agonists and antagonists using fluorescence resonance energy transfer” (Merck & Co., Inc., priority 1997, dated 2004).
